Reference: the NIST ThermoML archive (doi:10.1021/je200145r)
Numbers after ± are expanded uncertainties.

Test: wn = mass fraction of the nth substance listed
Conditions: 101 kPa, Liquid; for viscosity: Capillary tube (Ostwald / Ubbelohde) method

C1COCCO1 [1,4-dioxane] + CO
Conditions | mass density, 298.15 K [kg/m3] | mass density, 303.15 K [kg/m3] | mass density, 308.15 K [kg/m3] | mass density, 313.15 K [kg/m3] | viscosity, 298.15 K [mPa·s] | viscosity, 303.15 K [mPa·s] | viscosity, 308.15 K [mPa·s] | viscosity, 313.15 K [mPa·s]
w1 = 0.1 | 811.2 ± 0.8 | 806.4 ± 0.8 | 801.7 ± 0.8 | 796.9 ± 0.8 | 0.55 ± 0.007 | 0.511 ± 0.007 | 0.473 ± 0.007 | 0.432 ± 0.007
w1 = 0.2 | 834.4 ± 0.8 | 828.8 ± 0.8 | 823.4 ± 0.8 | 818.4 ± 0.8 | 0.554 ± 0.007 | 0.517 ± 0.007 | 0.482 ± 0.007 | 0.448 ± 0.007
w1 = 0.3 | 852.5 ± 0.7 | 847.4 ± 0.7 | 842.6 ± 0.8 | 838 ± 0.8 | 0.565 ± 0.008 | 0.527 ± 0.007 | 0.489 ± 0.007 | 0.452 ± 0.007
w1 = 0.4 | 875.1 ± 0.7 | 870.2 ± 0.7 | 865.5 ± 0.7 | 860.6 ± 0.7 | 0.587 ± 0.008 | 0.548 ± 0.007 | 0.508 ± 0.007 | 0.467 ± 0.007
